Experimental data reported in patent US20210353624A1, “METHOD OF TREATING CANCER WITH TELOTRISAT OR A PRODRUG THEREOF” (TerSera Therapeutics LLC, priority 2020, published 2021).
Where “and” joins values, the source holds several entries; their conditions need not be identical. Equal entries are not always repeated.

Legend:
CgA = assay: Biomarker changes after TE initiation (TELEACE): CgA; format: in vivo, human; settings: n=15
Experimental: This example provides the effects of telotristat ethyl treatment on selected patient biomarkers (i.e., u5-HIAA; CgA; 5-HT; and NT-proBNP) in the retrospective, single arm study of Example 4.
The average (SD) duration of documented TE treatment was 12.0 (7.3) months with a median (IQR) of 9.0 (6.8, 15.2) months. In many cases, a patient received a TE dosage of 250 mg three times per day.
Patients with reported biomarker values below, at, or above normal range in pre-TE and post-TE initiation periods were described using proportions and frequencies. The biomarkers were assessed only among patients with complete biomarker assessment results in both pre-TE and post-TE initiation periods. McNemar's test was used to calculate P-values for the differences in paired proportions of patients with values above the upper limit of normal.
For the biomarker results below, the pre-TE initiation period is defined as 12 months before the index date (initiation of TE). The assessment closest to the index date during the pre-TE period was reported for each biomarker.
The post-TE initiation period is defined as a period from index date to the earlier of end of treatment with TE or date of chart abstraction. The assessment closest to the date of chart abstraction during the post-TE period was reported for each biomarker.
The data includes patients with reported biomarker values, units, and laboratory ranges during pre- and post-TE initiation periods. It excludes patients who had different biomarker units or laboratory ranges reported pre- and post-TE initiation.
The normal range was defined by reported laboratory lower limit of normal and upper limit of normal.
McNemar's test could not be performed because all patients had CgA value above normal range pre-TE initiation.

[1] = system: locally advanced or metastatic neuroendocrine tumors (NETs); assay: Retrospective single arm chart review (TELEACE): tumor progression, PFS, tumor size; format: in vivo, human; parameters: patients with progression-free survival (without tumor progression or death) (%) / Progression-free survival: Patients without outcome (%): concentration or dose not given beside the values; settings: for Difference in tumor size between pre and post-TE initiation, Estimate: longitudinal generalized linear regression (GEE), 95% CI (−16.1%, −0.2%), P=0.045, negative = decrease; for patients with progression-free survival (without tumor progression or death) (%) / patients without tumor progression (%): overall population
Text: This example provides a retrospective, single arm study of patients with locally advanced or metastatic neuroendocrine tumors (NETs) and documented carcinoid syndrome (CS). The patients received telotristat ethyl for at least 6 months. […] This example reports progression-free survival (PFS), time to tumor progression, changes in carcinoid syndrome (CS) symptoms, and indictors of overall health.
Patients with poorly differentiated neuroendocrine tumors, mixed tumor types or conflicting clinical trial enrollment were excluded. Descriptive statistics, Kaplan-Meier and Chi-square tests were used to evaluate PFS, tumor progression, changes in CS symptoms, body weight and Eastern Cooperative Oncology Group (ECOG) performance status before and after telotristat ethyl initiation. Subgroup analyses were conducted in patients with the same pre- and post-telotristat ethyl background treatment.
Adults with unresectable locally advanced or metastatic neuroendocrine tumors and evidence of carcinoid syndrome documented in their medical chart were eligible for inclusion if they had received telotristat ethyl for at least 6 months and had any additional carcinoid syndrome and neuroendocrine tumor treatment information available for at least six months after telotristat ethyl initiation or until death. The presence of carcinoid syndrome was based on the participating physician's assessment of information contained in the medical charts. Participating physicians were recruited by a professional recruiting organization (Dynata, Plano, Tex., USA) and had to have treated at least one eligible patient with telotristat ethyl in the past 12 months in order to participate. Eligible records had to have documented tumor size and tumor response assessments before and after telotristat ethyl initiation, including at least two radiological scans in the 12 months before telotristat ethyl and at least one scan after telotristat ethyl initiation. Patients with a histologically poorly differentiated neuroendocrine tumor based on grade (G3) or Ki67 index >20%, mixed tumor types according to physician notes, or documented enrollment in any clinical trial during the 6 months after telotristat ethyl initiation were excluded.
Time to tumor progression was defined as the time from telotristat ethyl initiation to the first documented tumor progression in the medical chart. […] Progression-free survival (PFS) was defined as the time from telotristat ethyl initiation to tumor progression or death. […] Physician-assessed changes in body weight, Eastern Cooperative Oncology Group (ECOG) Performance Status, and CS symptoms including diarrhea, flushing, abdominal pain, nausea and ascites were abstracted from medical charts before and after telotristat ethyl initiation.
In order to evaluate the effect of telotristat ethyl treatment on secondary clinical outcomes, analyses were conducted in the overall population and in a subgroup of patients who had the same documented non-telotristat ethyl neuroendocrine tumor treatment before and after telotristat ethyl initiation. Descriptive statistics summarized patient demographic and clinical characteristics, and changes in body weight and ECOG Performance Status after telotristat ethyl treatment initiation. Kaplan-Meier analyses estimated median time to tumor progression and median PFS. Chi-square test evaluated changes in documented CS symptoms (improved vs same/worsened) before and after telotristat ethyl initiation. All analyses were performed using SAS version 9.4 (SAS Institute, Cary, N.C., USA).
A radiological scan performed immediately before telotristat ethyl initiation was evaluated. A radiological scan performed post-telotristat ethyl was also examined. Paired t-test was used to calculate P-value for tumor size. Statistical significance (P<0.001) was also confirmed using Wilcoxon signed rank test. […]

[2] = 6 months after TE initiation, listed as TE
[3] = 12 months after TE initiation, listed as TE
[4] = treatment subgroup n=65, 12 months
[5] = treatment subgroup n=65, 18 months

**Q.** Which “patients with CgA above normal range pre-TE who had normal CgA value post-TE initiation” value (CgA) does the source give for `CCOC(=O)[C@@H](N)Cc1ccc(-c2cc(O[C@H](c3ccc(Cl)cc3-n3ccc(C)n3)C(F)(F)F)nc(N)n2)cc1` [telotristat ethyl, (S)-ethyl 2-amino-3-(4-(2-amino-6-((R)-1-(4-chloro-2-(3-methyl-1H-pyrazol-1-yl)phenyl)-2,2,2-trifluoroethoxy)pyrimidin-4-yl)phenyl)propanoate] here?
**A.** ~30%

**Q.** What about the “CgA At normal range Post-TE, n (%)” value (CgA; pre-TE 0 (0)) of the same compound?
**A.** 4 (26.7) n (%)

**Q.** And the “CgA Below normal range Post-TE, n (%)” value (CgA; pre-TE 0 (0))?
**A.** 0 (0) n (%)

**Q.** And the “CgA Above normal range Post-TE, n (%)” value (CgA; pre-TE 15 (100.0))?
**A.** 11 (73.3) n (%)

**Q.** And the “Tumor size (cm) Change from baseline, Mean ± SD” value ([1]; N=200, P<0.001)?
**A.** −0.5 ± 1.8 cm

**Q.** And the “Tumor size (cm) Post-TE initiation, Mean (IQR)” value ([1]; N=200, pre-TE 3.5 (2.3, 5.0))?
**A.** 3.0 (2.0, 4.8) cm

**Q.** What about the “Tumor size (cm) Post-TE initiation, Mean ± SD” value ([1]; N=200, pre-TE 3.9 ± 2.2) of the same compound?
**A.** 3.4 ± 2.3 cm

**Q.** And the “patients with improved (responded completely or partially) tumor response post-TE initiation” value ([1]; among 33 patients with worsened (progressed) tumor response pre-TE initiation)?
**A.** 45%

**Q.** And the “average (SD) tumor size reduction” value ([1]; from scan immediately before TE initiation until last scan post-TE, P<0.001)?
**A.** 0.5 (1.8) cm

**Q.** And the “Difference in tumor size between pre and post-TE initiation, Estimate” value [1]?
**A.** −8.5%

**Q.** What about the “Difference in tumor size between pre and post-TE initiation, Estimate” value ([1]; listed as TE) of the same compound?
**A.** −8.5%

**Q.** And the median progression-free survival ([1]; overall population n=200, Kaplan-Meier, IQR 17.8, 39.8)?
**A.** 23.7 months

**Q.** What about the “median time to tumor progression” value ([1]; overall population n=200, Kaplan-Meier, IQR 18.7, 39.8) of the same compound?
**A.** 39.8 months

**Q.** And the “patients with progression-free survival (without tumor progression or death) (%)” value ([1]; 6 months after TE initiation)?
**A.** 90% and 89.5%

**Q.** And the “patients without tumor progression (%)” value ([1]; 6 months after TE initiation)?
**A.** 92%

**Q.** What about the “patients with progression-free survival (without tumor progression or death) (%)” value [1, 2] of the same compound?
**A.** 89.5%

**Q.** And the “patients without tumor progression (%)” value [1, 2]?
**A.** 92.0%

**Q.** And the “patients with progression-free survival (without tumor progression or death) (%)” value ([1]; 12 months after TE initiation)?
**A.** 80% and 79.9%

**Q.** What about the “patients without tumor progression (%)” value ([1]; 12 months after TE initiation) of the same compound?
**A.** 87% and 86.8%

**Q.** What about the “patients with progression-free survival (without tumor progression or death) (%)” value [1, 3] of the same compound?
**A.** 79.9%

**Q.** What about the “patients without tumor progression (%)” value [1, 3] of the same compound?
**A.** 86.8%

**Q.** What about the “patients with progression-free survival (without tumor progression or death) (%)” value ([1]; 18 months after TE initiation) of the same compound?
**A.** 72.1%

**Q.** What about the “patients without tumor progression (%)” value ([1]; 18 months after TE initiation) of the same compound?
**A.** 78.3%

**Q.** And the “Tumor progression: Patients without outcome (%)” value ([1]; treatment subgroup n=65 (same background treatment pre/post TE), 6 months)?
**A.** 100.0%

**Q.** What about the “Progression-free survival: Patients without outcome (%)” value ([1]; treatment subgroup n=65, 6 months) of the same compound?
**A.** 96.9%

**Q.** And the “Progression-free survival: Patients without outcome (%)” value [1, 4]?
**A.** 87.5%

**Q.** What about the “Tumor progression: Patients without outcome (%)” value [1, 4] of the same compound?
**A.** 90.4%

**Q.** And the “Progression-free survival: Patients without outcome (%)” value [1, 5]?
**A.** 87.5%

**Q.** What about the “Tumor progression: Patients without outcome (%)” value [1, 5] of the same compound?
**A.** 90.4%
